Like-named read-outs stand apart in the source and are kept apart here.
Tested on: AP-1 induced transcriptional activity
Experiment: Cellular Transrepressional Assay (AP-1 luciferase reporter in A549 cell, PMA activated)
Type: cell-based
Details: pAP-1-Luc; for Emax / AP-1 Max % inh (Cellular Transrepression Assay): maximum inhibition, PMA; for Emax: read-out: AP-1 Max % inh (Cellular Transrepression Assay); for EC50: 10 ng/ml PMA, 7 hours, read-out: AP-1 EC50, nM (Cellular Transrepression Assay)
Description: Cellular Transrepressional Assay
To measure the ability of test molecules to inhibit AP-1 induced transcriptional activity we utilized an A549 cell which was stably transfected with a plasmid containing 7×AP-1 DNA binding sites (pAP-1-Luc plasmid, Stratagene Co. La Jolla, Calif.) followed by the gene for luciferase. Cells were activated with 10 ng/ml of phorbol myristic acid (PMA) plus or minus test molecules for 7 hours. After 7 hours a luciferase reagent was added to measure luciferase enzymatic activity in the cell. After a 10 minute incubation of luciferase reagent with cells, luminescence was measured in a TopCount luminescence counter. Repression of AP-1 activity was calculated as the percentage decrease in the signal induced by PMA alone. Test molecules were analyzed in the concentration range from 0.1 nM to 40 μM. EC50s were determined by using standard curve fitting methods such as Excel fit (Microsoft Co.). An EC50 is the test molecule concentration at which there is a 50% repression of the maximal inhibition of transcription, i.e. a 50% reduction of AP-1 activity.

Row | Compound | Emax (Homo sapiens, A549, 7 h) | EC50 (Homo sapiens, A549, 7 h) | AP-1 Max % inh (Cellular Transrepression Assay) | EC50
1 | C[C@@H](C(=O)Nc1nncs1)[C@H](c1cccc(F)c1)c1ccc(-c2ccc(C(=O)N3CCCC3)c(F)c2)s1 [Example 116, (2R,3R)-3-(3-fluorophenyl)-3-(5-(3-fluoro-4-(1-pyrrolidinylcarbonyl)phenyl)-2-thienyl)-2-methyl-N-1,3,4-thiadiazol-2-ylpropanamide] | 40.8% | 67.7 nM | – | –
2 | COc1ccc(-c2ccc(C(c3ccccc3)C(C)(C)C(=O)Nc3nccs3)cn2)cc1 (stereo not drawn) [Example 26, 3-(6-(4-methoxyphenyl)-3-pyridinyl)-2,2-dimethyl-3-phenyl-N-1,3-thiazol-2-ylpropanamide] | 41.4% | 316 nM | – | –
3 | CCN(C)C(=O)c1ccc(-c2ccc(C(c3ccccc3)C(C)(C)C(=O)Nc3nncs3)s2)cc1 (stereo not drawn) [Example 88, 4-(5-(2,2-dimethyl-3-oxo-1-phenyl-3-(1,3,4-thiadiazol-2-ylamino)propyl)-2-thienyl)-N-ethyl-N-methylbenzamide] | – | – | 43.56 % inh | 15.7 nM
4 | C[C@@H](C(=O)Nc1nncs1)[C@H](c1ccccc1)c1ccc(-c2ccc(C(=O)N(C)C)cc2)s1 [Example 140, N,N-dimethyl-4-(5-((1R,2R)-2-methyl-3-oxo-1-phenyl-3-(1,3,4-thiadiazol-2-ylamino)propyl)-2-thienyl)benzamide] | 54.1% | 15.2 nM | – | –
5 | CC(C(=O)Nc1nncs1)C(c1ccccc1)c1ccc(-c2ccc(C(=O)N3CCOCC3)cc2)s1 (single isomer, unassigned) [Example 144, 2-methyl-3-(5-(4-(4-morpholinylcarbonyl)phenyl)-2-thienyl)-3-phenyl-N-1,3,4-thiadiazol-2-ylpropanamide] | – | – | 49.49 % inh | 5.98 nM
6 | CN(C)C(=O)c1ccc(-c2ccc([C@H](c3cccc(F)c3)C(C)(C)C(=O)Nc3nncs3)s2)cc1Cl [Example 66, 2-chloro-4-(5-((1R)-1-(3-fluorophenyl)-2,2-dimethyl-3-oxo-3-(1,3,4-thiadiazol-2-ylamino)propyl)-2-thienyl)-N,N-dimethylbenzamide] | 50.4% | 5.16 nM | – | –
7 | CCN(CC)C(=O)c1ccc(-c2ccc([C@H](c3cccc(F)c3)C(C)(C)C(=O)Nc3nncs3)s2)cc1Cl [Example 70, 2-chloro-N,N-diethyl-4-(5-((1R)-1-(3-fluorophenyl)-2,2-dimethyl-3-oxo-3-(1,3,4-thiadiazol-2-ylamino)propyl)-2-thienyl)benzamide] | 23% | 833 nM | – | –
8 | CCCc1ccc(-c2ccc(C(c3cccc(F)c3)C(C)(C)C(=O)Nc3nncs3)s2)cc1 (stereo not drawn) [Example 40, -(3-fluorophenyl)-2,2-dimethyl-3-(5-(4-propylphenyl)-2-thienyl)-N-1,3,4-thiadiazol-2-ylpropanamide] | – | – | 37.26 % inh | 5.36 nM
9 | C[C@@H](C(=O)Nc1nncs1)[C@H](c1cccc(F)c1)c1ccc(-c2ccc(C(=O)N(C)C)c(Cl)c2)s1 [Example 110, 2-Chloro-4-(5-((1R,2R)-1-(3-fluorophenyl)-2-methyl-3-oxo-3-(1,3,4-thiadiazol-2-ylamino)propyl)-2-thienyl)-N,N-dimethylbenzamide] | 47% | 24.6 nM | – | –
10 | CN(C)C(=O)c1ccc(-c2ccc(C(c3ccccc3)C(C)(C)C(=O)Nc3nncs3)s2)cc1Cl (stereo not drawn) [Example 43, 2-Chloro-4-(5-(2,2-dimethyl-3-oxo-1-phenyl-3-(1,3,4-thiadiazol-2-ylamino)propyl)-2-thienyl)-N,N-dimethylbenzamide] | 38.4% | – | – | 10.7 nM
11 | CC(C)(C(=O)Nc1nncs1)[C@@H](c1cccc(F)c1)c1ccc(-c2ccc(C(=O)N3CCOCC3)cc2)s1 [Example 64, (3R)-3-(3-Fluorophenyl)-2,2-dimethyl-3-(5-(4-(4-morpholinylcarbonyl)phenyl)-2-thienyl)-N-1,3,4-thiadiazol-2-ylpropanamide] | 53.8% | 3.04 nM | – | –
12 | C[C@@H](C(=O)Nc1nncs1)[C@H](c1cccc(F)c1)c1ccc(-c2ccc(C(=O)N3CCOCC3)c(Cl)c2)s1 [Example 111, (2R,3R)-3-(5-(3-chloro-4-(4-morpholinylcarbonyl)phenyl)-2-thienyl)-3-(3-fluorophenyl)-2-methyl-N-1,3,4-thiadiazol-2-ylpropanamide] | 53.3% | 21.2 nM | – | –
13 | CC(C(=O)Nc1nncs1)C(c1cccc(F)c1)c1ccc(-c2ccc(C(=O)N3CCOCC3)cc2)s1 (single isomer, unassigned) [Example 100, 3-(3-fluorophenyl)-2-methyl-3-(5-(4-(4-morpholinylcarbonyl)phenyl)-2-thienyl)-N-1,3,4-thiadiazol-2-ylpropanamide] | 50.6% | – | – | 8.8 nM
14 | CC(C(=O)Nc1nncs1)C(c1ccccc1)c1ccc(-c2ccc(C(=O)N(C)C)c(Cl)c2)s1 (single isomer, unassigned) [Example 149, 2-chloro-N,N-dimethyl-4-(5-(2-methyl-3-oxo-1-phenyl-3-(1,3,4-thiadiazol-2-ylamino)propyl)-2-thienyl)benzamide] | – | – | 54.20 % inh | 216 nM
15 | CN(C)C(=O)c1ccc(-c2ccc(C(c3ccccc3)C(C)(C)C(=O)Nc3nncs3)s2)cc1 (stereo not drawn) [Example 87, 4-(5-(2,2-dimethyl-3-oxo-1-phenyl-3-(1,3,4-thiadiazol-2-ylamino)propyl)-2-thienyl)-N,N-dimethylbenzamide] | 41.1% | 8.49 nM | – | –
16 | CC(C)(C(=O)Nc1nncs1)C(c1cccc(F)c1)c1ccc(-c2ccc(C(=O)N3CCCC3)cc2)s1 (stereo not drawn) [Example 41, 3-(3-fluorophenyl)-2,2-dimethyl-3-(5-(4-(1-pyrrolidinylcarbonyl)phenyl)-2-thienyl)-N-1,3,4-thiadiazol-2-ylpropanamide] | 65.5% | 6.5 nM | – | –
17 | CC(C)(C(=O)Nc1nncs1)C(c1cc(F)cc(F)c1)c1ccc(-c2ccc(C(=O)N3CCOCC3)cc2)s1 (stereo not drawn) [Example 89, 3-(3,5-difluorophenyl)-2,2-dimethyl-3-(5-(4-(4-morpholinylcarbonyl)phenyl)-2-thienyl)-N-1,3,4-thiadiazol-2-ylpropanamide] | 36.7% | 2.41 nM | – | –
18 | CC(C(=O)Nc1nncs1)C(c1ccccc1)c1ccc(-c2ccc(C(=O)N(C)C)cc2)s1 (single isomer, unassigned) [Example 147, N,N-dimethyl-4-(5-(2-methyl-3-oxo-1-phenyl-3-(1,3,4-thiadiazol-2-ylamino)propyl)-2-thienyl)benzamide] | – | – | 48.44 % inh | 168 nM

— patent US8222247B2, “Modulators of glucocorticoid receptor, AP-1, and/or NF-kappabeta activity and use thereof” (Bristol-Myers Squibb Company, priority 2006, dated 2012)
